Data: PMC10044725, “Antioxidant, Anti-Inflammatory and Anti-Diabetic Activities of Tectona grandis Methanolic Extracts, Fractions, and Isolated Compounds” (Antioxidants, 2023)
Marks after values point to notes of the source that are not given here.

Key:
[1] = test system: α-glucosidase; test: α-Glucosidase inhibition assay (pNPG); type: biochemical; settings: for Inhibitory Rate (%): at a concentration of 50 µM; for IC50: compounds
Method: The inhibitory effect on α-glucosidase was measured according to the previous report method with slight modifications. The 20 mM sample dissolved in DMSO was diluted to 50 μM in PBS, 10 μL sample was mixed with 50 μL of 0.1 μ/mL α-glucosidase solution in 0.1 M phosphate buffer (pH 6.5) in a 96-well microplate and 10 μL PBS was used as a blank control. The mixture was incubated at 37 °C for 10 min before adding 40 µL of 5 mM 4-nitrophenyl-α-D-glucopyranoside to each well. After 30 min of incubation at 37 °C, the reaction was terminated by adding 50 μL of 0.1 M Na2CO3 to this mixture. The released 4-nitrophenol absorbance measurements were carried out using a microplate reader (SpectraMax190, USA) at 405 nm.

[2] = DPPH free radical scavenging assay; settings: half scavenging concentration; for EC50: isolated compounds, read-out: DPPH Assay SC50
Method: The DPPH free radical scavenging activities of T. grandis methanolic extract, different fractions and its compounds were conducted according to Dr. Yang et al.. […] The absorbance was measured using a microplate reader at 517 nm, and ascorbic acid was used as a positive control. The DPPH scavenging activity was calculated according to the following formula: Scavenging activity (%) = [1 − (A1 − A2)/(A3 − A4)] × 100% (1) where A1 is the OD value of the tested samples, A2 is the OD value of the sample control, A3 is the OD value of the negative control and A4 is the OD value of the blank control. The analysis was performed in triplicates and the results were described as SC50 values.

[3] = ABTS radical cation scavenging assay (Trolox equivalent)
Method: The ABTS radical cation (ABTS•+) scavenging activities were conducted in accordance with the instructions for the ABTS kit. The total antioxidant activity values were estimated using the Trolox equivalent antioxidant capacity test. The detection concentration of methanolic extract and different fractions was 80 μg/mL, and the detection concentration of compounds (1–23) was 50 μM. […] Then, 190 μL of ABTS working reagent was mixed with 10 μL sample and incubated at room temperature for 5 min. The absorbance was then measured using a microplate reader at 734 nm, and the scavenging activity was calculated according to Equation (2). The blank control group used DMSO to replace the sample. […] The analysis was performed in triplicates, 1.424, 0.0012 was a constant.

[4] = Ferric reducing antioxidant power (FRAP) assay; settings: Trolox equivalent
Method: The FRAP assay was determined in accordance with the instructions for the FRAP kit. The total antioxidant activity values were estimated using the Trolox equivalent antioxidant capacity test. Initially, the detection concentration of methanolic extract and different fractions was 80 μg/mL, and the detection concentration of compounds (1–23) was 50 μM. Then, 190 μL of FRAP working reagent was mixed with 10 μL sample and incubated at room temperature for 20 min. The absorbance was then measured using a microplate reader at 593 nm, and the scavenging activity was calculated according to Equation (3). The blank control group used DMSO to replace the sample. […] The analysis was performed in triplicates, 0.8054, 0.0134 was a constant.

[5] = test system: pBR322 DNA; test: Prevention of AAPH-induced DNA oxidative damage; settings: AAPH 20 mM; p < 0.0001 vs model
Method: The effects of T. grandis methanolic extract, different fractions and its compounds 15, 19 and 23 on the prevention of DNA oxidative damage were carried out using the method of Han et al.. Initially, 8 μL pBR322 DNA (50 μg/mL) in PBS (0.1 M, pH 6.8) was mixed with different concentrations of T. grandis fractions and its compounds (12 μL) and incubated in water at 37 °C for 30 min. Then, 5 μL AAPH (20 mM) was added to the mixture and the reaction continued for 60 min. The control group used the same volume of PBS (0.1 M, pH 6.8) to replace AAPH. The pre-treated samples were mixed with 5 × DNA loading buffer, and the mixture (8 μL) was taken for 1.0% agarose gel electrophoresis for 25 min. After electrophoresis, the gels were stained with ethidium bromide for 20 min. Finally, images were taken using a DNA gel imaging system (ChampChemi 610, Beijing sage creation Co., Ltd. Beijing, China).

[6] = methanolic extract and fractions at 80 μg/mL

| Compound | Inhibitory Rate (%) [1] | EC50 [2] [µM] | DPPH Assay SC50 ([2]; methanolic extract and fractions, ascorbic acid positive control) | ABTS Assay ([3]; compounds at 50 μM) | ABTS Assay [3, 6] | FRAP Assay ([4]; compounds at 50 μM) | FRAP Assay [4, 6] | IC50 [1] [µM] | concentration at which a protective effect against DNA oxidative damage begins [5] [mM] |
| --- | --- | --- | --- | --- | --- | --- | --- | --- | --- |
| C[C@H]1O[C@H](O[C@H]2[C@H](O)[C@@H](O)[C@@H](O[C@H]3[C@H](O)[C@@H](O)C(O)O[C@@H]3CO)O[C@@H]2CO)[C@H](O)[C@@H](O)[C@@H]1N[C@H]1C=C(CO)[C@@H](O)[C@H](O)[C@H]1O (stereo partly drawn) [Acarbose, reference compound] | 99.53 ± 0.01 ^a % |  |  |  |  |  |  |  |  |
| O=C1O[C@H]([C@@H](O)CO)C(O)=C1O [Ascorbic acid, reference compound] |  | 13.45 ± 0.02 | 3.39 ± 0.98 ^e µg/mL | 0.85 ± 0.00 ^a mmol Trolox/L | 0.99 ± 0.00 ^a mmol Trolox/L | 1.01 ± 0.06 ^a mmol Trolox/L | 1.35 ± 0.02 ^b mmol Trolox/L |  |  |
| COc1ccc(-c2cc(=O)c3c(O)cc(O[C@@H]4O[C@H](C(=O)O)[C@@H](O)[C@H](O)[C@H]4O)cc3o2)cc1 [Compound 2, acacetin-7-O-β-glucuronide] | 31.35 ± 6.46 ^c % | 17.4 ± 1.08 |  | 0.92 ± 0.01 ^a mmol Trolox/L |  | 0.03 ± 0.01 ^c mmol Trolox/L |  | > 50 |  |
| O=c1cc(-c2ccc(O)cc2)oc2cc(O)cc(O)c12 [Compound 3, apigenin] | 29.06 ± 1.86 ^cd % | 5.22 ± 0.19 |  | 0.05 ± 0.00 ^d mmol Trolox/L |  | 0.01 ± 0.01 ^c mmol Trolox/L |  | > 50 |  |
| COC(=O)[C@H]1O[C@@H](Oc2cc(O)c3c(=O)cc(-c4ccc(O)cc4)oc3c2)[C@H](O)[C@@H](O)[C@@H]1O [Compound 4, apigenin-7-O-β-D-glucuronide methyl ester] | 68.54 ± 2.90 ^b % | 31.5 ± 1.75 |  | 0.21 ± 0.01 ^b mmol Trolox/L |  | 0.02 ± 0.00 ^c mmol Trolox/L |  | 14.2 ± 0.34 |  |
| COC(=O)[C@H]1O[C@@H](Oc2cc(-c3cc(=O)c4c(O)cc(O)cc4o3)ccc2O)[C@H](O)[C@@H](O)[C@@H]1O [Compound 5, vitegnoside] | 69.67 ± 2.20 ^b % | 9.92 ± 0.36 |  | 0.92 ± 0.00 ^a mmol Trolox/L |  | 1.02 ± 0.01 ^a mmol Trolox/L |  | 19.3 |  |
| O=c1cc(-c2ccc(O)c(O)c2)oc2cc(O)cc(O)c12 [Compound 6, luteolin] | 12.96 ± 2.08 ^d % | 22.1 ± 1.24 |  | 0.99 ± 0.07 ^a mmol Trolox/L |  | 0.37 ± 0.05 ^b mmol Trolox/L |  | > 50 |  |
| COc1cc(O)c2c(=O)c(O)c(-c3ccc(O)c(O)c3)oc2c1 [Compound 7, rhamnetin] | 85.13 ± 0.81 ^ab % | 16.9 ± 0.67 |  | 0.92 ± 0.07 ^a mmol Trolox/L |  | 0.33 ± 0.04 ^b mmol Trolox/L |  | 3.04 |  |
| O=c1c(O)c(-c2ccc(O)c(O)c2)oc2cc(O)cc(O)c12 [Compound 8, quercetin] | 1.27 ± 0.25 ^e % |  |  | 1.05 ± 0.01 ^a mmol Trolox/L |  | 0.01 ± 0.00 ^c mmol Trolox/L |  |  |  |
| Cc1ccc2c(c1O)C(=O)c1cccc(O)c1C2=O [Compound 9, isozyganein] | 3.13 ± 4.06 ^e % |  |  |  |  |  |  | > 50 |  |
| O=C1c2cc(CO)ccc2C(=O)c2c(O)cccc21 [Compound 10, 1-hydroxy-6-hydroxymethyl anthraquinone] | 1.77 ± 4.08 ^e % |  |  | 0.13± 0.00 ^c mmol Trolox/L |  | 0.01 ± 0.01 ^c mmol Trolox/L |  | > 50 |  |
| O=C(O)C1OC(Oc2cc(-c3cc(=O)c4c(O)cc(O)cc4o3)ccc2O)C(O)C(O)C1O (stereo not drawn) [Compound 11, luteolin-3′-O-glucuronide] | 4.57 ± 4.37 ^e % |  |  | 0.65 ± 0.00 ^b mmol Trolox/L |  | 0.01 ± 0.00 ^c mmol Trolox/L |  | > 50 |  |
| COc1cc(C)cc2c1C(=O)c1c(O)cc(O)cc1C2=O [Compound 12, 1-O-methylemodin] | 53.04 ± 0.36 ^bc % |  |  | 0.03 ± 0.00 ^d mmol Trolox/L |  |  |  |  |  |
| Cc1cc2c(cc1O)C(=O)c1ccccc1C2=O [Compound 14, 3-hydroxy-2-methyl-9,10-anthraquinone] | 20.03 ± 2.44 ^c % | 25.8 ± 0.57 |  | 0.09 ± 0.06 ^d mmol Trolox/L |  | 0.03 ± 0.00 ^c mmol Trolox/L |  | > 50 |  |
| O=C(O)c1c[nH]c2ccccc12 [Compound 16, 1H-indole-3-carboxylic acid] | 12.53 ± 0.76 ^d % | 12.3 ± 0.53 |  | 0.78 ± 0.01 ^a mmol Trolox/L |  | 0.28 ± 0.01 ^b mmol Trolox/L |  | > 50 |  |
| COc1ccc(/C=C/C=O)cc1O [Compound 17, 3-hydroxy-4-methoxycinnamaladehyde] | 8.69 ± 1.94 ^de % |  |  | 0.80 ± 0.01 ^a mmol Trolox/L |  |  |  | > 50 |  |
| COc1cc(C2Oc3c(OC)cc(CCCO)cc3C2CO)ccc1O (stereo not drawn) [Compound 19, rel-(2α,3β)-7-O-methylcedrusin] | 57.40 ± 1.32 ^bc % | 6.17 ± 0.06 |  | 0.85 ± 0.03 ^a mmol Trolox/L |  | 0.25 ± 0.01 ^b mmol Trolox/L |  |  | 5.0 |
| COc1cc(C(O)C(CO)Oc2c(OC)cc(/C=C/CO)cc2OC)cc(OC)c1O (stereo not drawn) [Compound 20, 7S,8R-syringylglycerol-8-O-4′-(synapyl alcohol) ether] | 40.30 ± 0.76 ^c % | 8.66 ± 0.43 |  | 0.67 ± 0.01 ^b mmol Trolox/L |  | 0.29 ± 0.00 ^b mmol Trolox/L |  | > 50 |  |
| COc1cc(O)c2c(c1O)C(=O)c1cc(C)ccc1C2=O [Compound 22, austrocortirubin] | 20.58 ± 1.30 ^c % |  |  | 0.32 ± 0.01 ^bc mmol Trolox/L |  |  |  | > 50 |  |
